Source: patent publication US20220323406A1, “METHODS AND COMPOSITIONS FOR DIFFERENTIATING STEM CELLS” (Massachusetts Institute of Technology, priority 2019, published 2022)
Structures can show the parent of a compound that is named as a salt.

Tests used:
[1] = system: ENR+CD organoids (ISC to Paneth cell differentiation); experiment: Primary screen: basal (non-stimulated) lysozyme secretion LYZ.NS, 2.5-D 384-well ENR+CD organoid differentiation; format: cell-based, mouse; settings: primary screen; for Z.LYZ.NS: standard z score
From the text: (§1) High-throughput screening.

[2] = system: ENR+CD organoids (ISC to Paneth cell differentiation); experiment: Primary screen: CCh-stimulated lysozyme secretion LYZ.S, 2.5-D 384-well ENR+CD organoid differentiation; format: cell-based, mouse; settings: primary screen
From the text: as §1

ENR+CD organoids = experiment: Primary screen: ATP (CellTiter-Glo 3D, CTG) cell number/viability, 2.5-D 384-well ENR+CD organoids; settings: primary screen; for Z.CTG: standard z score;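 on all read-outs here: compounds given at plating and again on day 3 over a 6-day differentiation from ENR+CV stem-cell-enriched precursors, ATP measured on day 6, plate median as control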
[3] = dose 0.08 uM, FC vs plate median
[4] = dose 0.40 uM, FC vs plate median
[5] = dose 2.00 uM, FC vs plate median
[6] = dose 10.00 uM, FC vs plate median
[7] = dose 0.08 uM, FC relative to plate median
[8] = dose 0.40 uM, FC relative to plate median
[9] = dose 2.00 uM, FC relative to plate median
[10] = dose 10.00 uM, FC relative to plate median
[11] = 1st dose row of the treatment (0.08 uM by row order; dose not reprinted)
[12] = 2nd dose row of the treatment (0.40 uM by row order; dose not reprinted)
[13] = 3rd dose row of the treatment (2.00 uM by row order; dose not reprinted)
[14] = 4th dose row of the treatment (10.00 uM by row order; dose not reprinted)

Compound | Dose.FC.LYZ.NS ([1]; dose 0.08 uM) | Z.LYZ.NS (standard z score) ([1]; dose 0.08 uM) | Dose.FC.LYZ.NS ([1]; dose 0.40 uM) | Z.LYZ.NS (standard z score) ([1]; dose 0.40 uM) | Dose.FC.LYZ.NS ([1]; dose 2.00 uM) | Z.LYZ.NS (standard z score) ([1]; dose 2.00 uM) | Dose.FC.LYZ.NS ([1]; dose 10.00 uM) | Z.LYZ.NS (standard z score) ([1]; dose 10.00 uM) | Dose.FC.LYZ.S ([2]; dose 0.08 uM) | Dose.FC.LYZ.S ([2]; dose 0.40 uM) | Dose.FC.LYZ.S ([2]; dose 2.00 uM) | Dose.FC.LYZ.S ([2]; dose 10.00 uM) | Dose.FC.CTG (ENR+CD organoids; dose 0.08 uM) | Dose.FC.CTG (ENR+CD organoids; dose 0.40 uM) | Dose.FC.CTG (ENR+CD organoids; dose 2.00 uM) | Dose.FC.CTG (ENR+CD organoids; dose 10.00 uM) | Z.CTG (standard z score) (ENR+CD organoids; dose 0.08 uM) | Z.CTG (standard z score) (ENR+CD organoids; dose 0.40 uM) | Z.CTG (standard z score) (ENR+CD organoids; dose 2.00 uM) | Z.CTG (standard z score) (ENR+CD organoids; dose 10.00 uM) | also measured
CCCSc1nc(N[C@@H]2C[C@H]2c2ccc(F)c(F)c2)c2nnn([C@@H]3C[C@H](OCCO)[C@@H](O)[C@H]3O)c2n1 [Ticagrelor] | 0.115 log2 fold change | 0.998 | −0.032 log2 fold change | −0.276 | 0.120 log2 fold change | 1.041 | 0.020 log2 fold change | 0.170 | 0.042 log2 fold change | 0.000 log2 fold change | 0.018 log2 fold change | 0.022 log2 fold change | −0.080 log2 fold change | −0.029 log2 fold change | −0.270 log2 fold change | −0.241 log2 fold change | – | – | – | – | –
CCCC(=O)Nc1cccc(NC(=O)c2ccccc2Br)c1 [ML161] | – | – | – | – | – | – | – | – | – | – | – | – | – | – | – | – | – | – | – | – | Z.LYZ.NS ([1]; dose 0.08 uM): 0.158; Z.LYZ.NS ([1]; dose 0.40 uM): −0.237; Z.LYZ.NS ([1]; dose 2.00 uM): 0.323; Z.LYZ.NS ([1]; dose 10.00 uM): −0.494; Dose.FC.LYZ.NS [1, 3]: 0.018 log2 fold change; Dose.FC.LYZ.NS [1, 4]: −0.027 log2 fold change; Dose.FC.LYZ.NS [1, 5]: 0.037 log2 fold change; Dose.FC.LYZ.NS [1, 6]: −0.057 log2 fold change; Dose.FC.LYZ.S [2, 3]: 0.017 log2 fold change; Dose.FC.LYZ.S [2, 4]: −0.027 log2 fold change; Dose.FC.LYZ.S [2, 5]: 0.024 log2 fold change; Dose.FC.LYZ.S [2, 6]: −0.066 log2 fold change; Z.CTG (ENR+CD organoids; dose 0.08 uM): 0.205; Z.CTG (ENR+CD organoids; dose 0.40 uM): 0.067; Z.CTG (ENR+CD organoids; dose 2.00 uM): 0.157; Z.CTG (ENR+CD organoids; dose 10.00 uM): −0.084; Dose.FC.CTG (ENR+CD organoids; [3]): 0.086 log2 fold change; Dose.FC.CTG (ENR+CD organoids; [4]): 0.028 log2 fold change; Dose.FC.CTG (ENR+CD organoids; [5]): 0.066 log2 fold change; Dose.FC.CTG (ENR+CD organoids; [6]): −0.035 log2 fold change
NC(=O)c1cccc(-c2cccc(OC(=O)NC3CCCCC3)c2)c1 [URB597] | 0.087 log2 fold change | 0.754 | −0.001 log2 fold change | −0.007 | 0.035 log2 fold change | 0.307 | −0.014 log2 fold change | −0.123 | 0.141 log2 fold change | 0.021 log2 fold change | 0.017 log2 fold change | −0.044 log2 fold change | 0.314 log2 fold change | 0.065 log2 fold change | 0.137 log2 fold change | −0.021 log2 fold change | – | – | – | – | –
CN1C2CCCC1CC(NC(=O)c1nn(C)c3ccccc13)C2 (centres unmarked) [Granisetron HCl] | – | 0.531 | – | −0.021 | – | 0.155 | – | −0.378 | – | – | – | – | – | – | – | – | – | – | – | – | Dose.FC.LYZ.NS (log2 fold change) ([1]; dose 0.08 uM): 0.061; Dose.FC.LYZ.NS (log2 fold change) ([1]; dose 0.40 uM): −0.002; Dose.FC.LYZ.NS (log2 fold change) ([1]; dose 2.00 uM): 0.018; Dose.FC.LYZ.NS (log2 fold change) ([1]; dose 10.00 uM): −0.043; Dose.FC.LYZ.S (log2 fold change) ([2]; dose 0.08 uM): 0.015; Dose.FC.LYZ.S (log2 fold change) ([2]; dose 0.40 uM): 0.131; Dose.FC.LYZ.S (log2 fold change) ([2]; dose 2.00 uM): −0.007; Dose.FC.LYZ.S (log2 fold change) ([2]; dose 10.00 uM): −0.103; Dose.FC.CTG (log2 fold change) (ENR+CD organoids; dose 0.08 uM): −0.214; Dose.FC.CTG (log2 fold change) (ENR+CD organoids; dose 0.40 uM): −0.086; Dose.FC.CTG (log2 fold change) (ENR+CD organoids; dose 2.00 uM): −0.178; Dose.FC.CTG (log2 fold change) (ENR+CD organoids; dose 10.00 uM): −0.297
Oc1ncnc2[nH]ncc12 [Allopurinol] | 0.019 log2 fold change | 0.168 | −0.036 log2 fold change | −0.314 | −0.004 log2 fold change | −0.036 | −0.051 log2 fold change | −0.442 | 0.026 log2 fold change | −0.086 log2 fold change | −0.064 log2 fold change | −0.119 log2 fold change | 0.212 log2 fold change | −0.098 log2 fold change | −0.162 log2 fold change | −0.454 log2 fold change | – | – | – | – | –
O=C(c1ccc(F)cc1)N1CCC[C@H](c2nc(-c3ccc(F)cc3)no2)C1 [ADX-47273] | 0.269 log2 fold change | 2.346 | 0.053 log2 fold change | 0.457 | −0.033 log2 fold change | −0.286 | −0.036 log2 fold change | −0.311 | 0.147 log2 fold change | 0.147 log2 fold change | −0.039 log2 fold change | −0.070 log2 fold change | 0.115 log2 fold change | −0.034 log2 fold change | −0.210 log2 fold change | −0.039 log2 fold change | 0.274 | −0.082 | −0.501 | −0.094 | –
CC(C)NCC(O)COc1cccc2ccccc12 (centres unmarked) [Propranolol HCl] | – | – | – | – | – | – | – | – | – | – | – | – | – | – | – | – | – | – | – | – | Dose.FC.LYZ.NS [1, 7]: 0.048 log2 fold change; Z.LYZ.NS ([1]; dose 0.08 uM): 0.418; Dose.FC.LYZ.NS [1, 8]: 0.074 log2 fold change; Z.LYZ.NS ([1]; dose 0.40 uM): 0.642; Dose.FC.LYZ.NS [1, 9]: 0.164 log2 fold change; Z.LYZ.NS ([1]; dose 2.00 uM): 1.427; Dose.FC.LYZ.NS [1, 10]: 0.032 log2 fold change; Z.LYZ.NS ([1]; dose 10.00 uM): 0.276; Dose.FC.LYZ.S [2, 7]: 0.173 log2 fold change; Dose.FC.LYZ.S [2, 8]: 0.204 log2 fold change; Dose.FC.LYZ.S [2, 9]: 0.091 log2 fold change; Dose.FC.LYZ.S [2, 10]: 0.040 log2 fold change; Dose.FC.CTG (ENR+CD organoids; [7]): 0.066 log2 fold change; Dose.FC.CTG (ENR+CD organoids; [8]): 0.054 log2 fold change; Dose.FC.CTG (ENR+CD organoids; [9]): 0.117 log2 fold change; Dose.FC.CTG (ENR+CD organoids; [10]): 0.168 log2 fold change
COc1ccc2c(c1)c(CC(=O)N1CCOCC1)c(C)n2C(=O)c1ccc(Cl)cc1 [BML-190] | 0.072 log2 fold change | 0.623 | −0.017 log2 fold change | −0.152 | 0.116 log2 fold change | 1.011 | 0.209 log2 fold change | 1.823 | 0.060 log2 fold change | −0.037 log2 fold change | 0.017 log2 fold change | 0.067 log2 fold change | −0.003 log2 fold change | −0.099 log2 fold change | −0.106 log2 fold change | −0.106 log2 fold change | −0.007 | −0.237 | −0.254 | −0.254 | –
O=C(O)C(Cc1ccccc1[N+](=O)[O-])=NNc1nc(-c2ccc(Cl)c(Cl)c2)cs1 (mixture of isomers) [4EGI-1] | 0.110 log2 fold change | 0.956 | 0.036 log2 fold change | 0.315 | 0.069 log2 fold change | 0.597 | −0.034 log2 fold change | −0.300 | −0.037 log2 fold change | 0.054 log2 fold change | −0.059 log2 fold change | 0.057 log2 fold change | −0.160 log2 fold change | −0.131 log2 fold change | 0.127 log2 fold change | −0.109 log2 fold change | −0.383 | −0.314 | 0.304 | −0.261 | SSMD.LYZ.NS_Rep (strictly standardized mean difference) [1, 11]: 0.378; SSMD.LYZ.NS_Rep (strictly standardized mean difference) [1, 12]: 0.264; SSMD.LYZ.NS_Rep (strictly standardized mean difference) [1, 13]: 0.252; SSMD.LYZ.NS_Rep (strictly standardized mean difference) [1, 14]: −0.257; SSMD.LYZ.S_Rep (strictly standardized mean difference) [2, 11]: −0.264; Z.LYZ.S (standard z score) [2, 11]: −0.236; SSMD.LYZ.S_Rep (strictly standardized mean difference) [2, 12]: 0.326; Z.LYZ.S (standard z score) [2, 12]: 0.352; SSMD.LYZ.S_Rep (strictly standardized mean difference) [2, 13]: −0.328; Z.LYZ.S (standard z score) [2, 13]: −0.380; SSMD.LYZ.S_Rep (strictly standardized mean difference) [2, 14]: 0.189; Z.LYZ.S (standard z score) [2, 14]: 0.366; SSMD.CTG.Rep (strictly standardized mean difference) (ENR+CD organoids; [11]): −0.352; SSMD.CTG.Rep (strictly standardized mean difference) (ENR+CD organoids; [12]): −0.158; SSMD.CTG.Rep (strictly standardized mean difference) (ENR+CD organoids; [13]): 0.407; SSMD.CTG.Rep (strictly standardized mean difference) (ENR+CD organoids; [14]): −0.283
